Test results from ChEMBL document CHEMBL1127586, “Central cholinergic agents. 6. Synthesis and evaluation of 3-[1-(phenylmethyl)-4-piperidinyl]-1-(2,3,4,5-tetrahydro-1H-1-benzazepi n-8-yl)-1-propanones and their analogs as central selective acetylcholinesterase inhibitors” (J Med Chem, 1994).

Columns and labels:
Acetylcholinesterase = target: T1, Acetylcholinesterase (Rattus norvegicus, UniProt P37136)
T1 sequence (P37136 whole entry): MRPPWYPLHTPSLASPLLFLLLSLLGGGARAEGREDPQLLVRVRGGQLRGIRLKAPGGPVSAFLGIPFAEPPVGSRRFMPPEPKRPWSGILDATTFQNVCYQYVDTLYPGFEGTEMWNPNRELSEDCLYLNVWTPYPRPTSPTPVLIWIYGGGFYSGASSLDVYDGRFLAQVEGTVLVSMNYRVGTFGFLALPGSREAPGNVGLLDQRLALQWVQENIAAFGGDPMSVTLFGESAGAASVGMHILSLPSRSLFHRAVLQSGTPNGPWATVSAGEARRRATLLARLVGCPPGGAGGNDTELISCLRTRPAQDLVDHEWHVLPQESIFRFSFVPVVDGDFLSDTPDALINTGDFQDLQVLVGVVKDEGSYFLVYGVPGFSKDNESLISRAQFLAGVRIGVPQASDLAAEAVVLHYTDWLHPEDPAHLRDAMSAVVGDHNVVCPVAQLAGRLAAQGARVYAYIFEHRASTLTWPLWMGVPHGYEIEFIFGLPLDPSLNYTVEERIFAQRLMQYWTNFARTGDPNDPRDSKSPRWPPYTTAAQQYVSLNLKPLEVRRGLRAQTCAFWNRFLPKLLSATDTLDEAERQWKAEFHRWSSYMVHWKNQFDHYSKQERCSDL
Description: Inhibition of acetylcholinesterase (AChE)

Rattus norvegicus [1] = experiment: Number of circlings observed for 30 min at 3 mg/kg orally administered dose in rats; assay type: functional; conditions: route oral
Rattus norvegicus [2] = species: Rattus norvegicus; experiment: Inhibition of circling behavior, percentage of control was reported; (p<0.05); assay type: functional; design: scale not given: the % may be the effect or the level left
Rattus norvegicus [3] = experiment: Peripheral cholinergic effects in male wistar rats when administered orally at a dose of 3 mg/Kg.; assay type: functional, organism-based
Rattus norvegicus [4] = experiment: Effect of compound on peripheral cholinergic effects in male wistar rats when administered orally at a dose of 10 mg/Kg; fasciculation, lacrimation; assay type: functional, organism-based
Rattus norvegicus [5] = experiment: Effect of compound on peripheral cholinergic effects in male wistar rats when administered orally at a dose of 30 mg/Kg; fasciculation, lacrimation, salivation; assay type: functional, organism-based
Rattus norvegicus [6] = species: Rattus norvegicus; conditions: dose 10 mg/kg; route oral
Description: Number of circlings observed for 30 min at 10 mg/kg orally administered dose in rats

Rattus norvegicus [7] = experiment: Effect of compound on peripheral cholinergic effects in male wistar rats when administered orally at a dose of 30 mg/Kg; fasciculation, lacrimation; assay type: functional, organism-based
Rattus norvegicus [8] = experiment: Peripheral cholinergic effects in male wistar rats when administered orally at a dose of 10 mg/Kg.; assay type: functional, organism-based
Rattus norvegicus [9] = experiment: Effect of compound on peripheral cholinergic effects in male wistar rats when administered orally at a dose of 30 mg/Kg; fasciculation, diarrhea; assay type: functional, organism-based
Rattus norvegicus [10] = experiment: Effect of compound on peripheral cholinergic effects in male wistar rats when administered orally at a dose of 3 mg/Kg; fasciculation; assay type: functional, organism-based
Rattus norvegicus [11] = experiment: Effect of compound on peripheral cholinergic effects in male wistar rats when administered orally at a dose of 1 mg/Kg; No significant change; assay type: functional, organism-based
Rattus norvegicus [12] = experiment: Number of circlings observed for 30 min at 1 mg/kg orally administered dose in rats; assay type: functional; conditions: route oral
Rattus norvegicus [13] = experiment: Effect of compound on peripheral cholinergic effects in male wistar rats when administered orally at a dose of 30 mg/Kg; fasciculation, salivation; assay type: functional, organism-based
Rattus norvegicus [14] = experiment: Effect of compound on peripheral cholinergic effects in male wistar rats when administered orally at a dose of 10 mg/Kg; salivation; assay type: functional, organism-based

COc1ccccc1CN1CCC(CCC(=O)c2ccc3c(c2)CCN3)CC1
IC50 (Acetylcholinesterase): 812 nM

CN1CCc2cc(C(=O)CCC3CCN(Cc4ccccc4)CC3)ccc21
No. of circlings (Rattus norvegicus [1]): 68.7
Control (Rattus norvegicus [2]): 56.4%
Activity (Rattus norvegicus [3]): No activity
Activity (Rattus norvegicus [4]): Fasciculation, Lacrimation
Activity (Rattus norvegicus [5]): Fasciculation, Lacrimation, Salivation
No. of circlings (Rattus norvegicus [6]): 51.9

O=C(CCC1CCN(Cc2ccccc2)CC1)c1ccc2c(c1)N(Cc1ccccc1)CCCC2
IC50 (Acetylcholinesterase): 3140 nM

O=C(CCC1CCN(Cc2cccc(Cl)c2)CC1)c1ccc2c(c1)NCCCC2
IC50 (Acetylcholinesterase): 333 nM

O=C(CCC1CCN(Cc2ccccc2)CC1)c1ccc2c(c1)N(Cc1ccccc1)CCC2
IC50 (Acetylcholinesterase): 1490 nM

O=C(CCC1CCN(Cc2ccc(F)cc2)CC1)c1ccc2c(c1)CCN2
Activity (Rattus norvegicus [7]): Fasciculation, Lacrimation
IC50 (Acetylcholinesterase): 89 nM
No. of circlings (Rattus norvegicus [1]): 107.4
Activity (Rattus norvegicus [3]): No activity
Activity (Rattus norvegicus [4]): Fasciculation, Lacrimation

COc1ccccc1CN1CCC(CCC(=O)c2ccc3c(c2)NCCCC3)CC1
IC50 (Acetylcholinesterase): 2620 nM

O=C(CCC1CCN(Cc2cccc(F)c2)CC1)c1ccc2c(c1)CCN2
No. of circlings (Rattus norvegicus [1]): 84.3
Activity (Rattus norvegicus [8]): Fasciculation
Activity (Rattus norvegicus [3]): No activity

O=C(CCC1CCN(Cc2cccc(Cl)c2)CC1)c1ccc2c(c1)CCCN2Cc1ccccc1
IC50 (Acetylcholinesterase): 164 nM
No. of circlings (Rattus norvegicus [6]): 88

CCCCN1CCc2cc(C(=O)CCC3CCN(Cc4ccccc4)CC3)ccc21
Activity (Rattus norvegicus [9]): Fasciculation, Diarrhea
No. of circlings (Rattus norvegicus [1]): 86.4
Activity (Rattus norvegicus [8]): Fasciculation
Activity (Rattus norvegicus [3]): No activity

CN1CCCc2cc(C(=O)CCC3CCN(Cc4cccc(Cl)c4)CC3)ccc21
Activity (Rattus norvegicus [10]): Fasciculation
IC50 (Acetylcholinesterase): 24 nM
No. of circlings (Rattus norvegicus [1]): 54.5
Activity (Rattus norvegicus [11]): No activity
Control (Rattus norvegicus [2]): 58%
Activity (Rattus norvegicus [4]): Fasciculation, Lacrimation
No. of circlings (Rattus norvegicus [12]): 76.5
Activity (Rattus norvegicus [5]): Fasciculation, Lacrimation, Salivation

CCCN1CCCCc2ccc(C(=O)CCC3CCN(Cc4ccccc4)CC3)cc21
IC50 (Acetylcholinesterase): 1330 nM

O=C(CCC1CCN(Cc2ccccc2)CC1)c1ccc2c(c1)CCCCN2
No. of circlings (Rattus norvegicus [1]): 94.7
Activity (Rattus norvegicus [8]): Fasciculation
Activity (Rattus norvegicus [3]): No activity
Activity (Rattus norvegicus [13]): Fasciculation, Salivation

O=C(CCC1CCN(Cc2ccc(F)cc2)CC1)c1ccc2c(c1)NCCCC2
IC50 (Acetylcholinesterase): 393 nM

O=C(CCC1CCN(Cc2cccc(Cl)c2)CC1)c1ccc2c(c1)CCN2
IC50 (Acetylcholinesterase): 59 nM
No. of circlings (Rattus norvegicus [6]): 94.9

O=C(CCC1CCN(Cc2ccccc2Cl)CC1)c1ccc2c(c1)CCN2
IC50 (Acetylcholinesterase): 76 nM
No. of circlings (Rattus norvegicus [6]): 67.5

O=C(CCC1CCN(Cc2ccccc2)CC1)c1ccc2c(c1)CCN2
Activity (Rattus norvegicus [7]): Fasciculation, Lacrimation
No. of circlings (Rattus norvegicus [1]): 52.4
Activity (Rattus norvegicus [3]): No activity
Activity (Rattus norvegicus [4]): Fasciculation, Lacrimation

O=C(CCC1CCN(Cc2ccccc2F)CC1)c1ccc2c(c1)CCN2
IC50 (Acetylcholinesterase): 43 nM
Activity (Rattus norvegicus [3]): No activity
Activity (Rattus norvegicus [13]): Fasciculation, Salivation
No. of circlings (Rattus norvegicus [6]): 86.7
Activity (Rattus norvegicus [14]): Salivation

O=C(CCC1CCN(Cc2ccccc2)CC1)c1ccc2c(c1)NCCC2
No. of circlings (Rattus norvegicus [1]): 60.5
Activity (Rattus norvegicus [8]): Fasciculation
Activity (Rattus norvegicus [3]): No activity

O=C(CCC1CCN(Cc2ccc(Cl)cc2)CC1)c1ccc2c(c1)CCN2
IC50 (Acetylcholinesterase): 6360 nM
